Laboratory results reported in paper PMC12164026, “Plant-derived nodule-specific cysteine-rich peptides as potent antifungal agents against Cryptococcus neoformans: mechanisms of action, chimeric peptide enhancement, and immunomodulatory effects” (Current Research in Microbial Sciences, 2025).
Values after ≈ are worked out from the molar mass of the structure shown. Peptide text beside a SMILES is read from it.

How the values were obtained:
J774.2 mouse macrophages = experiment: Phagocytosis of peptide-treated C. neoformans cells by macrophages, imaging flow cytometry; type: cell-based; conditions: yeast cells pre-treated with 3.12 µM peptide for 15 min, 5:1 yeast-to-macrophage ratio
Method: C. neoformans was cultivated for 16 h at 30 °C, collected by centrifugation (5000 g, 5 min), and washed twice with sterile distilled water and once with PBS. […] After 15 min of incubation at 30 °C, the peptide-containing solution was removed by centrifugation, and the C. neoformans cells were washed with PBS and re-suspended in 100 µL PBS. Untreated C. neoformans cells served as controls.
To label C. neoformans cells, the suspension was supplemented with 11 µL of 1 M Na₂CO₃ (pH 10) and 2 µL of Alexa Fluor 488-labelled-concanavalin (Invitrogen, Waltham, MA, US), followed by incubation at room temperature for 30 min, protected from light. After PBS washing, the cell density was determined using a Bürker chamber and adjusted to the required concentration. […]
Following incubation, cells from each technical replicate were collected by centrifugation (200 g, 10 min), washed once with PBS, and re-suspended in 100 µL PBS buffer for detection. A random selection of 1000 macrophages was evaluated in each experimental sample, and the proportion of macrophages harboring fluorescently labelled C. neoformans cells was quantified utilizing imaging flow cytometry (FlowSight®, Amnis-EMD Millipore) equipped with a 488-nm excitation laser, with data analysis conducted through the IDEAS software platform.

C. neoformans cells = experiment: Effect of X1-NCR247C and calcofluor white on CFU; type: cell-based, Cryptococcus neoformans
Method: To assess the effect of X1-NCR247C peptide and calcofluor white, C. neoformans cells were subjected to different treatments. […] For staining, cells were treated with calcofluor white at 2.5 µg/mL for the same duration. As a control, cells were incubated only with calcofluor white for 20 min.
For combined treatment, cells were first exposed to calcofluor white (2.5 µg/mL) for 5 min, followed by the addition of X1-NCR247C (0.39 µM), and the incubation continued for 15 additional minutes. Following treatment, cells were washed once with sterile distilled water to remove residual peptide and dye. Serial 10-, 100-, 1000-, and 10,000-fold dilutions were prepared, and 50 µL from each dilution was plated onto solid YPD medium in triplicate. After 48 h of incubation at 30 °C, colony-forming units were counted to determine cell viability under each condition.

[1] = system: C. neoformans IFM 5844 intact cells; experiment: Susceptibility of intact cells to peptide, CFU counts; type: cell-based, Cryptococcus neoformans; conditions: 30 min, YNB + 0.8 M sorbitol
Method: (§1) The C. neoformans IFM 5844 strain was grown in YPD nutrient solution at 30 °C for 12 h by vigorous shaking until the exponential phase was reached (about 5 × 10^7 cells/mL).
To assess peptide susceptibility, 2 × 10^6 protoplasts and the same number of intact cells were treated separately with X1-NCR247C peptide at 0.78 or 0.39 µM in YNB supplemented with 0.8 M sorbitol for 30 min at 30 °C. […] Fifty microliters from each dilution were mixed into 2 mL of top-agar (0.8 M sorbitol with 1 % agar) and spread onto the surface of YPD solid medium supplemented with 0.8 M sorbitol. Plates were incubated for 3 days at 30 °C, after which colony forming units were counted to determine the survival rate of peptide-treated cells and protoplasts.

[2] = system: Cryptococcus neoformans IFM 5844; type: cell-based; conditions: IFM 5844, 48 h
Method: The susceptibility of Cryptococcus neoformans IFM 5844 to 20 peptides (Supplementary Table 1) was tested in a widely used synthetic medium to cultivate yeasts (YNB) and in a serum-free medium what is able to support the proliferation of macrophage cells (X-VIVO).
X-VIVO medium: half-diluted X-VIVO™ 15 cell culture medium (Lonza, Verviers, Belgium).
The minimal inhibitory concentration (MIC) of each peptide was determined by using micro-dilution assay. The C. neoformans suspensions were adjusted to 5 × 10^4 cells/mL concentration in either YNB or X-VIVO medium. A 96-well microtiter plate was prepared by adding 95 µL suspension per well followed by 5 µL of serially two-fold diluted peptide solutions achieving a final volume of 100 µl. The concentration of the peptides ranged from 25 to 0.39 µM. For control samples, 5 µL pure medium was added to the yeast cell suspension instead of peptides. Plates were incubated at 37 °C for 48 h in X-VIVO medium and 30 °C for 72 h in YNB medium. After incubation, optical density was measured at 620 nm using a SPECTROstar Nano plate reader (BMG LabTech, Offenburg, Germany). […] The experiments were carried out in three independent biological replicates.

[3] = system: C. neoformans IFM 5844 cells; experiment: Short-term sub-MIC killing, CFU counts; type: cell-based, Cryptococcus neoformans; conditions: for proportion of viable cells (CFU relative to control): 0.19 µM (half-MIC), YNB, 2 × 10^6 cells/mL; for reduction in colony-forming units: 30 min
Method: To assess the time-dependent fungicidal activity of X1-NCR247C, C. neoformans cells cultivated for 16 h at 30 °C were collected by centrifugation and washed twice with sterile distilled water. […] Following treatment, cells were pelleted by centrifugation washed with distilled water and serially diluted 10-fold and 100-fold. Fifty microliters of each dilution were plated onto solid YPD medium in triplicate.
After treatment, the cells were pelleted by centrifugation, washed with distilled water and serially diluted 10-fold and 100-fold. Fifty microliters of each dilution were spread onto solid YPD medium in triplicate. For both experimental setups colony forming unit (CFU) counts were determined after 48-hours incubation at 30 °C. The CFU values of peptide-treated samples were compared to untreated control samples, providing insights into the extent of fungal viability reduction. Three independent biological replicates were performed.

[4] = system: C. neoformans IFM 5844 protoplasts; experiment: Susceptibility of protoplasts to peptide, CFU counts; type: cell-based, Cryptococcus neoformans; conditions: 30 min, YNB + 0.8 M sorbitol
Method: as §1
For protoplast preparation cells were harvested by centrifugation and re-suspended in 20 mL of pre-treatment buffer (10 mM Tris–HCl, pH 9; 5 mM EDTA-Na2) supplemented with 0.1 % 2-mercaptoethanol. After incubation at room temperature for 20 min, the samples were centrifuged and the cell pellet was washed with 0.8 M sorbitol solution. The pellet was then re-suspended in 20 mL of protoplasting solution (prepared by dissolving 1 g lyophilised Helix pomatia digestive enzyme in 100 mL sorbitol) and the suspension was incubated for 60 min at room temperature. Protoplast formation was monitored every 30 min under bright field microscope. Once formed, protoplasts were collected by centrifugation, washed twice with 0.8 M sorbitol, and their concentration was determined in a Bürker chamber.
To assess peptide susceptibility, 2 × 10^6 protoplasts and the same number of intact cells were treated separately with X1-NCR247C peptide at 0.78 or 0.39 µM in YNB supplemented with 0.8 M sorbitol for 30 min at 30 °C. […] Plates were incubated for 3 days at 30 °C, after which colony forming units were counted to determine the survival rate of peptide-treated cells and protoplasts.

SMILES: CSCC[C@H](NC(=O)[C@H](CCCCN)NC(=O)[C@H](Cc1ccccc1)NC(=O)[C@H](CC(N)=O)NC(=O)[C@H](CC(C)C)NC(=O)[C@@H]1CCCN1C(=O)[C@@H](N)CCCNC(=N)N)C(=O)N[C@@H](CC(C)C)C(=O)N[C@@H](CCCNC(=N)N)C(=O)N[C@@H](Cc1ccccc1)C(=O)N[C@@H](Cc1c[nH]c2ccccc12)C(=O)NCC(=O)N[C@@H](CCC(N)=O)C(=O)N[C@@H](CCC(N)=O)C(=O)N[C@@H](CCC(N)=O)C(=O)N[C@@H](CS)C(=O)N[C@@H](CCCNC(=N)N)C(=O)N[C@@H](CCCNC(=N)N)C(=O)N1CCC[C@H]1C(=O)N[C@@H](CC(C)C)C(=O)N[C@@H](Cc1ccc(O)cc1)C(=O)N[C@@H](CS)C(=O)N[C@@H](CCCNC(=N)N)C(=O)N[C@@H](CCCNC(=N)N)C(=O)N[C@@H](CCCNC(=N)N)C(N)=O [X1-NCR247C] (H-RPLNFKMLRFWGQQQCRRPLYCRRR-NH2; N-terminus assumed)
- percentage of phagocytic macrophages (J774.2 mouse macrophages; 30 min post-infection, untreated control 5.12 %): 7.95%
- percentage of phagocytic macrophages (J774.2 mouse macrophages; 60 min post-infection, untreated control 6.95 %): 33.95%
- effect on CFU counts (C. neoformans cells; calcofluor white (2.5 µg/mL) pre-treatment 5 min, then peptide 0.39 µM for 15 min): no reduction in the number of colony-forming units was observed
- effect on CFU counts (C. neoformans cells; peptide 0.39 µM (MIC) alone, 20 min, YNB, p ≤ 0.0001): significantly decrease cell viability
- CFU count reduction relative to untreated control ([1]; 0.39 µM): 97%
- CFU count reduction relative to untreated control ([1]; 0.78 µM): 99%
- MIC [2]: 3.12 µM (≈ 10.3 µg/mL)
- proportion of viable cells (CFU relative to control) ([3]; 5 min): 25%
- proportion of viable cells (CFU relative to control) ([3]; 60 min): 5%
- reduction in colony-forming units ([3]; half-MIC (0.19 µM), p ≤ 0.001): highly significant decrease
- reduction in colony-forming units ([3]; quarter-MIC, p ≤ 0.05): notable reduction
- CFU count reduction relative to untreated control ([4]; 0.39 µM): 43%
- CFU count reduction relative to untreated control ([4]; 0.78 µM): 83%
